In patent US8541440B2 (priority 2005, dated 2013):
Counter-ions that a name gives are not always drawn. Like-named read-outs stand apart in the source and are kept apart here.

Key:
[1] = molecular target: nicotinic receptors containing the α7 subunit (Rattus norvegicus, UniProt Q05941); assay: biochemical; format: binding
[2] = molecular target: nicotinic receptors containing the α4β2 subunit (Rattus norvegicus, UniProt P09483+P12390); assay: Affinity for nicotinic receptors containing the α4β2 subunit, [3H]-cytisine binding to rat brain membranes; conditions: read-out: Percentage of inhibition of the specific binding of [3H]-cytisine at a dose of 1 μM, for the α4β2 subunit
Sequence of nicotinic receptors containing the α4β2 subunit (P09483 31-630): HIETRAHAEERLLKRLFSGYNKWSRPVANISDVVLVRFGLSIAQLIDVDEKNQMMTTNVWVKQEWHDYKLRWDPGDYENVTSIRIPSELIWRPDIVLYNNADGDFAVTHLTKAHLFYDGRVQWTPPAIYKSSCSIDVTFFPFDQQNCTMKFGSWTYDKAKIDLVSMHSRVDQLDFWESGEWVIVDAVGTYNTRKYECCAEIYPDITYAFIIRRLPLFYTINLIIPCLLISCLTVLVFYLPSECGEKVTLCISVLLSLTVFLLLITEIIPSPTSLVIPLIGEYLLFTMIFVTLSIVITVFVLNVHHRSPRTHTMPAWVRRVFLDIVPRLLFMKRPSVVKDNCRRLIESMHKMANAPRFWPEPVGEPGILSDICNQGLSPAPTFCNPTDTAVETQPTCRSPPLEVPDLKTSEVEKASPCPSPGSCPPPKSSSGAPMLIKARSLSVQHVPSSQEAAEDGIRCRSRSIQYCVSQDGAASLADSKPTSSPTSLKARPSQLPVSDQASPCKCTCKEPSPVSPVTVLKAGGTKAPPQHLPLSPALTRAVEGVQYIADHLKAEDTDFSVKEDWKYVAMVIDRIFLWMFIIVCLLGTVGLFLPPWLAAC
Sequence of nicotinic receptors containing the α4β2 subunit (P12390 25-500): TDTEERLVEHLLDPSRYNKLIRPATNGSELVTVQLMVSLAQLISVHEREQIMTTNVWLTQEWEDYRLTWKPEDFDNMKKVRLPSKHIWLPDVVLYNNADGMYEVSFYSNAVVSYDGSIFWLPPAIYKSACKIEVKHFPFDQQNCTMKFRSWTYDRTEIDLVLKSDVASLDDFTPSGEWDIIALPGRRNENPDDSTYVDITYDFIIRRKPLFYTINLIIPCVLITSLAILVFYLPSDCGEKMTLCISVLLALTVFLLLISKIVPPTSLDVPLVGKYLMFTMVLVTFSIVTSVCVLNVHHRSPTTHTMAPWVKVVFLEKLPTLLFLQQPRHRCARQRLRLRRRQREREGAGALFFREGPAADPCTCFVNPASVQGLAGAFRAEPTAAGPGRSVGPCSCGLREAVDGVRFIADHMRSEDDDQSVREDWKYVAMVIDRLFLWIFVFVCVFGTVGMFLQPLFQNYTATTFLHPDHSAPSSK
Experimental: The compounds of the invention were also studied as regards their affinity for nicotinic receptors containing the α4β2 subunit according to the methods described by Anderson and Arneric, Eur. J. Pharmacol (1994), 253, 261, and by Hall et al., Brain Res. (1993), 600, 127.
Male Sprague Dawley rats weighing 150 to 200 g are decapitated and the entire brain is removed quickly, homogenized in 15 volumes of 0.32 M sucrose solution at 4° C. and then centrifuged at 1000×g for 10 min. The pellet is discarded and the supernatant is centrifuged at 20 000×g for 20 min at 4° C. The pellet is recovered and homogenized using a Polytron™ mill in 15 volumes of double-distilled water at 4° C., followed by centrifugation at 8000×g for 20 min. The pellet is discarded and the supernatant and the buffy coat are centrifuged at 40 000×g for 20 min, the pellet is recovered, resuspended in 15 ml of double-distilled water and centrifuged again at 40 000×g, before being stored at −80° C.
On the day of the experiment, the tissue is thawed slowly and suspended in 3 volumes of buffer. 150 μl of this membrane suspension are incubated at 4° C. for 120 min in the presence of 100 μl of 1 nM [^3H]-cytisine in a final volume of 500 μl of buffer, in the presence or absence of test compound. The reaction is stopped by filtration on Whatman GF/B™ filters pretreated with polyethyleneimine, the filters are rinsed with 2×5 ml of buffer at 4° C. and the radioactivity retained on the filter is measured by liquid scintigraphy. The non-specific binding is determined in the presence of 10 μM (−)-nicotine; the non-specific binding represents […] of the total binding recovered on the filter. For each concentration of test compound, the percentage of inhibition of the specific binding of [^3H]-cytisine is determined, at doses of 1 μM and 10 μM. For the most affine compounds of the invention, the IC50 value is calculated, which is the concentration of compound that inhibits the specific binding by 50%.

[3] = compound at 1 μM, 1 nM [3H]-cytisine, rat brain membranes

Sequence of nicotinic receptors containing the α7 subunit (Q05941 23-502): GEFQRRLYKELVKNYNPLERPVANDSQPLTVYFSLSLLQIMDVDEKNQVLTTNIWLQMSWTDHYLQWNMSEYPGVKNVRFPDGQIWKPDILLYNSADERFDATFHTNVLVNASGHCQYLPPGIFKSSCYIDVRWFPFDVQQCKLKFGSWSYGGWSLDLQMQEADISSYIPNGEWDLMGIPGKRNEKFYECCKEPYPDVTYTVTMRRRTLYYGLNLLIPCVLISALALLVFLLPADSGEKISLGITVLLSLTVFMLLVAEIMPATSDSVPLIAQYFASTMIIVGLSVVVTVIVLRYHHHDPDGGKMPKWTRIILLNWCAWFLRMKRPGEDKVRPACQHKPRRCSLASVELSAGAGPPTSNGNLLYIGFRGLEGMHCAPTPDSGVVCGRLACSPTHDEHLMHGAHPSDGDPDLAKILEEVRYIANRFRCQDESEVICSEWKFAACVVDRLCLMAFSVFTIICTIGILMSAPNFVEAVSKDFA

SMILES | melting point | other results
C1=CC2(c3ccc(-c4cscn4)nc3)CCN(C1)C2 (stereo not drawn) (as salt: HBr) | 272 to 274 °C | 
C1=CC2(c3ccc(-c4cc[nH]n4)nc3)CCN(C1)C2 (stereo not drawn) (as salt: HBr) | 273 to 275 °C | 
CC(C)Cn1cc(-c2ccc(C34C=CCN(CC3)C4)cn2)cn1 (stereo not drawn) (as salt: HBr) | 104 to 106 °C | 
CCCn1cc(-c2ccc(C34C=CCN(CC3)C4)cn2)cn1 (stereo not drawn) (as salt: HBr) | 190 to 192 °C | 
Cn1cc(-c2ccc(C34CCCN(CC3)C4)cn2)cn1 (racemic) | 138 to 140 °C | 
C1=CC2(c3ccc(-c4ncc[nH]4)nc3)CCN(C1)C2 (single isomer, unassigned) (as salt: HBr) [Compound 14] | 234 to 236 °C | 
C1=CC2(c3ccc(-c4c[nH]cn4)nc3)CCN(C1)C2 (single isomer, unassigned) [Compound 9] |  | IC50 [1]: 300 nM; inhibition at 1 µM [2, 3]: 24%
C1=CC2(c3ccc(-n4ccnc4)nc3)CCN(C1)C2 (single isomer, unassigned) [Compound 11] |  | IC50 ([1]; read-out: IC50 α7): 83 nM; inhibition at 1 µM [2]: 36%
C1=CC2(c3ccc(-c4ncc[nH]4)nc3)CCN(C1)C2 (single isomer, unassigned) [Compound 14] |  | IC50 [1]: 99 nM; inhibition at 1 µM [2, 3]: 45%
